Source: patent US8883833B2, “Substituted benzoazole PDE4 inhibitors for treating inflammatory, cardiovascular and CNS disorders” (Decode Genetics EHF, priority 2007, dated 2014)

Tests used:
Type in all cases: biochemical
h4B1 = h4B1 (Homo sapiens, UniProt Q07343); assay: In-vitro assay for PDE4 enzymes, real-time enzyme-coupled spectrophotometric assay (Table 3)
Method: (§1) In-vitro assay for PDE4 enzymes. The in-vitro activity of PDE4 enzymes and the in-vitro potency of therapeutic agents described in the present invention was measured using a real-time, enzyme-coupled spectrophotometric assay. By using three different coupling enzymes, the product of the PDE4 reaction is coupled to the oxidation of the reduced form β-nicotinamide adenine dinucleotide (NADH), which dissipation can be monitored spectrophotmetrically at […]. Assay description. Buffer A containing 50 mM Tris, pH 8.0, 16 mM MgCl2 and 80 mM KCl is prepared and stored at room temperature. Buffer B containing 50 mM Tris, pH 8.0 is prepared and stored at toom temperature. Stock solutions of the following reagents are prepared in Buffer B and stored at −20° C.: Adenosine-5′-triphosphate (ATP), cyclic adenosine-5′-monophosphate (cAMP), phosphoenolpyruvate (PEP) and NADH. An assay mix is prepared by mixing Buffer A, […] (TCEP), ATP, PEP, NADH, myokinase (MK), pyruvate kinase (PK), lactate dehydroganese (LDH) and PDE4 to a final volume of 20 mL, which is enough for a single 96-well assay plate. Assay mix (180 μL) and test article (10 μL) in 1:1 DMSO/H2O mixture is pre-incubated at room temperature for 10 min. The enzymatic reaction is initiated by addition of cAMP (10 μL). Final concentration of all components in the assay (200 μL/well) are as follows: 10 mM MgCl2, 50 mM KCl, 5 mM TCEP, 2.5% DMSO, 0.4 mM NADH, 1 mM PEP, 0.04 mM ATP, 5 units MK, 1 unit PK, 1 unit LDH and appropriate amount of PDE4. Reaction progress curves are monitored in a plate reader capable of measuring light absorbance at 340 nm. A decrease in light absorbance at 340 nm is due to oxidation of NADH. Positive controls containing no test article and negative controls containing no test article and no cAMP are included on every assay plate. Reaction rates are determined from the slopes of the linear portions of the progress curves. All data is percent normalized with respect to controls and presented as percent inhibition.

h4D7 = h4D7 (Homo sapiens, UniProt Q08499); assay: as above
Chain of h4D7 (Q08499 1-748 isoform Q08499-11): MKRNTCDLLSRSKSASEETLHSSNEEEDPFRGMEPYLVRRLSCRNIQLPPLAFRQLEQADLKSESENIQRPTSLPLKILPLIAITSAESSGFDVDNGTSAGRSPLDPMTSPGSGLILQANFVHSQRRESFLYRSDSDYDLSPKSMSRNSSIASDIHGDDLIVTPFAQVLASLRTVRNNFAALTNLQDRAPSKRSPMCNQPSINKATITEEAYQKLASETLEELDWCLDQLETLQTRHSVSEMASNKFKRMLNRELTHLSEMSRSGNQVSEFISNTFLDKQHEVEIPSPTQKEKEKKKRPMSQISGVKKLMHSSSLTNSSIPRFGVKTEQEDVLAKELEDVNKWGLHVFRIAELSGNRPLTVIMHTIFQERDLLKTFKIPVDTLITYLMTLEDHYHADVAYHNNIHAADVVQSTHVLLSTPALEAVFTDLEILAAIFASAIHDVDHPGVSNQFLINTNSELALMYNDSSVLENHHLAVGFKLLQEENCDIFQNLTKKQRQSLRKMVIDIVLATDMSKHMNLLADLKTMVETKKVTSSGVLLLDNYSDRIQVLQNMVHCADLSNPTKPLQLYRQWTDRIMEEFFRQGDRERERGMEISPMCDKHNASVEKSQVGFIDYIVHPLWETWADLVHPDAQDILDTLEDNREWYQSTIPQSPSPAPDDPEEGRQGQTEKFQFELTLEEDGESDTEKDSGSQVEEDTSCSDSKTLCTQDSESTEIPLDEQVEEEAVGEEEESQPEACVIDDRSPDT
Method: as §1

human PDE4B isozyme = human PDE4B isozyme (Homo sapiens, UniProt Q07343); assay: IC50 for human PDE4B isozyme (Table 5); conditions: read-out: IC50 for human PDE4B isozyme, hPDE4B
Chain of human PDE4B isozyme (Q07343 whole entry): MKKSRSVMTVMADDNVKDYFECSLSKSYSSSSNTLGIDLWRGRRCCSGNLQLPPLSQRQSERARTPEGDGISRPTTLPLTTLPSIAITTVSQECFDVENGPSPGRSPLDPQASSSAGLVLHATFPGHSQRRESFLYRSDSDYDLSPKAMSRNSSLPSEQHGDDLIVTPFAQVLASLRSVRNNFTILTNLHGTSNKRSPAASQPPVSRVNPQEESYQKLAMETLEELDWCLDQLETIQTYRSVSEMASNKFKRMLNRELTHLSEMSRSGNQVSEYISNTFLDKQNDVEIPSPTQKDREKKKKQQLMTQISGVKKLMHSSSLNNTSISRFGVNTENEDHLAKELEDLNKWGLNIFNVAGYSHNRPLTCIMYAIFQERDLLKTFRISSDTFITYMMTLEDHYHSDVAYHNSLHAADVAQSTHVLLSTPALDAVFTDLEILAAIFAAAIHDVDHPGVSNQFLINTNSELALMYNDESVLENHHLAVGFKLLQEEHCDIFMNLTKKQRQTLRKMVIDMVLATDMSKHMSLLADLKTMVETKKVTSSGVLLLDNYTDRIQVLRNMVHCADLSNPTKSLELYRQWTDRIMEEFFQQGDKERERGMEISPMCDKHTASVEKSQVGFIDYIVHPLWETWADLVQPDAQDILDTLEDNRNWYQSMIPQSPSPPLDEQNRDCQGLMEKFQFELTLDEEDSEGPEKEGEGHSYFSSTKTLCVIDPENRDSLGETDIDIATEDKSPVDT
Method: as §1

human PDE4D isozyme = human PDE4D isozyme (Homo sapiens, UniProt Q08499); assay: IC50 for human PDE4D isozyme (Table 4); conditions: read-out: IC50 for human PDE4D isozyme, hPDE4D
Chain of human PDE4D isozyme (Q08499 whole entry): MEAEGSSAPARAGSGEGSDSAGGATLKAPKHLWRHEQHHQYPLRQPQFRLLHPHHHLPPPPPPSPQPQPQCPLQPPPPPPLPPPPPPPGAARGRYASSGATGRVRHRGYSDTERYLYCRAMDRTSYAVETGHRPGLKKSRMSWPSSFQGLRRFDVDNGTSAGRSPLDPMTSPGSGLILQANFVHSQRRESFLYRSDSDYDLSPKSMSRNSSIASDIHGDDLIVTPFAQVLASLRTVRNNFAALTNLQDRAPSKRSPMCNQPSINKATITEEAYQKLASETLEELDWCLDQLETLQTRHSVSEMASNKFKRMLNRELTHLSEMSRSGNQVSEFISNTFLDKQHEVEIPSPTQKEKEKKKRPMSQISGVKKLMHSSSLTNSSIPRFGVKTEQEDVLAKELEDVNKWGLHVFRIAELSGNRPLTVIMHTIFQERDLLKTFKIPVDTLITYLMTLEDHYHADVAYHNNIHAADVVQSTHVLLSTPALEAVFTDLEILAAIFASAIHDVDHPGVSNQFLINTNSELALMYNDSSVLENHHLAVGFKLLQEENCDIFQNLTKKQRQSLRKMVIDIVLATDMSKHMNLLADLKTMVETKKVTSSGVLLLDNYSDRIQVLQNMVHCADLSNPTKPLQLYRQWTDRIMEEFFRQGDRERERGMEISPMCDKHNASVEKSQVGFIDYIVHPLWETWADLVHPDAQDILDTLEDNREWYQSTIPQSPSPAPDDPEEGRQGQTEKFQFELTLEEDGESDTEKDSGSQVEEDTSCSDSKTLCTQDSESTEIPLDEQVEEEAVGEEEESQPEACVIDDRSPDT
Method: as §1

Chain of h4B1 (Q07343 whole entry): as the sequence (Q07343 whole entry) above

SMILES	IC50 (h4B1) [nM]	IC50 (h4D7) [nM]	IC50 (human PDE4B isozyme) [nM]	IC50 (human PDE4D isozyme) [nM]
Cn1nccc1C(O)c1cc(-c2ccc3c(c2)OCO3)c2nc(N)sc2c1 (centres unmarked) [Example 6, (2-Amino-4-benzo[1,3]dioxol-5-yl-benzothiazol-6-yl)-(2-methyl-2H-pyrazol-3-yl)-methanol]	10000 to 20000	1000 to 10000		
Nc1nc2c(-c3ccc4c(c3)OCO4)cc(Cn3cccn3)cc2s1 [Example 9, 4-Benzo[1,3]dioxol-5-yl-6-pyrazol-1-ylmethyl-benzothiazol-2-ylamine]	1000 to 10000	1000 to 10000		
CCNC(=O)Nc1ccc(Cc2cc3scnc3c(-c3cccc(Cl)c3)c2F)cn1 [Example 33, 1-[5-[4-(3-chloro-phenyl)-5-fluoro-benzothiazol-6-ylmethyl]-pyridin-2-yl]-3-ethyl-urea]	< 1000	< 1000		
Oc1cccc(Cc2cc3scnc3c(-c3cccc(Cl)c3)c2F)c1 [Example 39, 3-[4-(3-chloro-phenyl)-5-fluoro-benzothiazol-6-ylmethyl]-phenol]	1000 to 10000	< 1000		
Nc1ccc(Cc2cc(-c3cccc(Cl)c3)c3ncsc3c2)cc1 [Example 25, 4-[4-(3-Chloro-phenyl)-benzothiazol-6-ylmethyl]-phenylamine]	< 1000	< 1000		
Nc1nc2c(-c3ccc4c(c3)OCO4)cc(C(O)c3ccc(F)cc3)cc2s1 (centres unmarked) [Example 5, (2-Amino-4-benzo[1,3]dioxol-5-yl-benzothiazol-6-yl)-(4-fluoro-phenyl)-methanol]		1000 to 10000		
Nc1ccc(Cc2cc3scnc3c(-c3cccc(Cl)c3)c2F)cc1 [Example 23, 4-[4-(3-chloro-phenyl)-5-fluoro-benzothiazol-6-ylmethyl]-phenylamine]	< 1000	< 1000		
Nc1nc2c(-c3cccc(Br)c3)cc(Cc3ccc(F)cc3)cc2s1 [Example 13, 4-(3-bromophenyl)-6-(4-fluorobenzyl)-1,3-benzothiazol-2-amine]	1000 to 10000	< 1000		
CC(=O)N1CCN(Cc2cc3scnc3c(-c3cccc(Cl)c3)c2F)CC1 [Example 44, 1-{4-[4-(3-Chloro-phenyl)-5-fluoro-benzothiazol-6-ylmethyl]-piperazin-1-yl}-ethanone]	10000 to 20000	1000 to 10000		
CCOC(=O)NC1CCN(Cc2cc3scnc3c(-c3cccc(Cl)c3)c2F)CC1 [Example 45, {1-[4-(3-Chloro-phenyl)-5-fluoro-benzothiazol-6-ylmethyl]-piperidin-4-yl}-carbamic acid ethyl ester]	1000 to 10000	< 1000		
CS(=O)(=O)Nc1ccc(Cc2cc(-c3cccc(Cl)c3)c3nc(N)sc3c2)cc1 [Example 18, N-{4-[2-Amino-4-(3-chloro-phenyl)-benzothiazol-6-ylmethyl]-phenyl}-methanesulfonamide]	1000 to 10000	< 1000		
CS(=O)(=O)Nc1ccc(Cc2cc3sc(N)nc3c(-c3cccc(Cl)c3)c2F)cc1 [Example 19, N-{4-[2-amino-4-(3-chloro-phenyl)-5-fluoro-benzothiazol-6-ylmethyl]-phenyl}-methanesulfonamide]	1000 to 10000	1000 to 10000		
CS(=O)(=O)Nc1ccc(Cc2cc(-c3cccc(Cl)c3)c3nc(N)oc3c2)cc1 [Example 20, N-{4-[2-Amino-4-(3-chloro-phenyl)-benzooxazol-6-ylmethyl]-phenyl}-methanesulfonamide]	1000 to 10000	< 1000		
Nc1ccc(Cc2cc3sc(N)nc3c(-c3cccc(Cl)c3)c2F)cc1 [Example 16, 6-(4-amino-benzyl)-4-(3-chloro-phenyl)-5-fluoro-benzothiazol-2-ylamine]		< 1000		
NC(=O)NC1CCN(Cc2cc3scnc3c(-c3cccc(Cl)c3)c2F)CC1 [Example 46, [1-[4-(3-Chloro-phenyl)-5-fluoro-benzothiazol-6-ylmethyl]-piperidin-4-yl]-urea]		1000 to 10000		
NC(=O)Nc1ccc(Cc2cc3sc(N)nc3c(-c3cccc(Cl)c3)c2F)cc1 [BA-21, {4-[2-amino-4-(3-chloro-phenyl)-5-fluoro-benzothiazol-6-ylmethyl]-phenyl}-urea]			< 5000	< 5000
Nc1nc2c(-c3ccc4c(c3)OCO4)nc(Cc3ccc(F)cc3)nc2s1 [BA-11, 7-Benzo[1,3]dioxol-5-yl-5-(4-fluorobenzyl)-thiazolo[5,4-d]pyrimidin-2-ylamine]			< 5000	< 5000
CCNC(=O)Nc1ccc(Cc2cc3scnc3c(-c3cccc(Cl)c3)c2F)cc1 [BA-30, 1-{4-[4-(3-chloro-phenyl)-5-fluoro-benzothiazol-6-ylmethyl]-phenyl}-3-ethyl-urea]			< 5000	< 5000
Oc1cccc(Cc2cc3scnc3c(-c3cccc(Cl)c3)c2F)c1 [BA-39, 3-[4-(3-chloro-phenyl)-5-fluoro-benzothiazol-6-ylmethyl]-phenol]			< 5000	< 5000
Nc1nc2c(-c3ccc4c(c3)OCO4)cc(C(O)c3ccc(F)cc3)cc2s1 (centres unmarked) [BA-05, (2-Amino-4-benzo[1,3]dioxol-5-yl-benzothiazol-6-yl)-(4-fluoro-phenyl)-methanol]			< 5000	< 5000
O=C1CCCN1Cc1cc2scnc2c(-c2cccc(Cl)c2)c1F [BA-54, 1-[4-(3-Chloro-phenyl)-5-fluoro-benzothiazol-6-ylmethyl]-pyrrolidin-2-one]			< 5000	< 5000
Nc1nc2c(-c3cccc([N+](=O)[O-])c3)cc(Cn3cccn3)cc2s1 [BA-10, 4-(3-Nitro-phenyl)-6-pyrazol-1-ylmethyl-benzothiazol-2-ylamine]			< 5000	< 5000
NC(=O)NC1CCN(Cc2cc3scnc3c(-c3cccc(Cl)c3)c2F)CC1 [BA-46, [1-[4-(3-Chloro-phenyl)-5-fluoro-benzothiazol-6-ylmethyl]-piperidin-4-yl]-urea]			5000 to 20000	< 5000
CCNC(=O)Nc1ccc(Cc2cc(-c3cccc(Cl)c3)c3nc(C)sc3c2)cn1 [BA-67, 1-{5-[4-(3-chloro-phenyl)-2-methyl-benzothiazol-6-ylmethyl]-pyridin-2-yl}-3-ethyl-urea]			< 5000	< 5000

Next, values leading:

IC50 (h4B1) [nM]	IC50 (h4D7) [nM]	IC50 (human PDE4B isozyme) [nM]	IC50 (human PDE4D isozyme) [nM]	SMILES
< 1000	< 1000			NC(=O)N1CCN(Cc2cc3scnc3c(-c3cccc(Cl)c3)c2F)CC1 [Example 31, 4-[4-(3-Chloro-phenyl)-5-fluoro-benzothiazol-6-ylmethyl]-piperazine-1-carboxylic acid amide]
< 1000	< 1000			Nc1ccc(Cc2cc(-c3cccc(Cl)c3)c3nc(N)oc3c2)cc1 [Example 32, 6-(4-aminobenzyl)-4-(3-chlorophenyl)-1,3-benzoxazol-2-amine]
1000 to 10000	< 1000			Nc1nc2c(-c3ccc4c(c3)OCO4)nc(Cc3ccc(F)cc3)nc2s1 [Example 11, 7-Benzo[1,3]dioxol-5-yl-5-(4-fluorobenzyl)-thiazolo[5,4-d]pyrimidin-2-ylamine]
< 1000	< 1000			CCNC(=O)Nc1ccc(Cc2cc3scnc3c(-c3cccc(Cl)c3)c2F)cc1 [Example 30, 1-{4-[4-(3-chloro-phenyl)-5-fluoro-benzothiazol-6-ylmethyl]-phenyl}-3-ethyl-urea]
1000 to 10000	< 1000			Nc1nc2c(-c3cccc(C(F)(F)F)c3)cc(Cc3ccc(F)cc3)cc2s1 [Example 7, 6-(4-Fluoro-benzyl)-4-(3-trifluoromethyl-phenyl)-benzothiazol-2-ylamine]
< 1000	< 1000			Nc1ccc(Cc2cc3sc(N)nc3c(-c3cccc([N+](=O)[O-])c3)c2O)cc1 [Example 15, 2-Amino-6-(4-amino-benzyl)-4-(3-nitro-phenyl)-benzothiazol-5-ol]
< 1000	< 1000			Nc1nc2c(-c3cccc([N+](=O)[O-])c3)cc(Cn3ccnc3)cc2s1 [Example 2, 6-imidazol-1-ylmethyl-4-(3-nitro-phenyl)-benzothiazol-2-ylamine]
1000 to 10000	< 1000			Cn1nccc1Cc1cc(-c2ccc3c(c2)OCO3)c2nc(N)sc2c1 [Example 8, 4-Benzo[1,3]dioxol-5-yl-6-(2-methyl-2H-pyrazol-3-ylmethyl)-benzothiazol-2-ylamine]
< 1000	< 1000			Cc1nc2c(-c3cccc(Cl)c3)cc(Cc3ccc(NC(N)=O)cc3)cc2o1 [Example 24, N-(4-{[4-(3-chlorophenyl)-2-methyl-1,3-benzoxazol-6-yl]methyl}phenyl)urea]
1000 to 10000	< 1000			Nc1nc2c(-c3ccc4nonc4c3)cc(Cc3ccc(F)cc3)cc2s1 [Example 3, 4-Benzol[1,2,5]oxadiazol-5-yl-6-(4-fluoro-benzyl)-benzothiazol-2-yl amine]
